The record followed here is US20260224611A1, “POLYOL-B-POLYOXAZOLINE COPOLYMERS” (FREIE UNIVERSITÄT BERLIN, priority 2023, published 2026).

Experiment [1] relates to infected non-diabetic wounds. The experiment in a line: Wound healing animal study, infected non-diabetic wounds. The experiment is classed as in vivo. The conditions noted are these: after 10 days, rats. As to the method:
(§1) Based on these achievements, the efficiency of hPG-b-PEtO for diabetic wound healing in animals was investigated. For this purpose, an animal study was performed in two different groups of rats with infected non-diabetic wounds (FIG. 12A) and infected diabetic wounds (FIG. 12B). […] Saline buffer without additions was used as control. The ability of the copolymer to heal wounds was investigated by measuring the wound contraction at different treatment times.

The next experiment deals with infected diabetic wounds. The experiment in a line: Wound healing animal study, infected diabetic wounds. It counts as in vivo. The settings on record: after 10 days, rats. As to the method: as §1

Consider `O=C1NC(=O)C(c2ccccc2)(c2ccccc2)N1` [phenytoin], for which the wound closure area in experiment [1] was determined as 90%; in the experiment with infected diabetic wounds it was 62%.
